Laboratory results published in ChEMBL document CHEMBL4270577, “Synthesis, anticancer activity and molecular modeling studies of 1,2,4-triazole derivatives as EGFR inhibitors” (Eur J Med Chem, 2018).

Columns and labels:
UACC-257 = test: Growth inhibition of human UACC257 cells at 10 uM incubated for 48 hrs by sulforhodamine B assay relative to control; assay type: functional; details: UACC-257, 48 h, read-out: GI
SNB-75 = test: Growth inhibition of human SNB75 cells at 10 uM incubated for 48 hrs by sulforhodamine B assay relative to control; assay type: functional; details: SNB-75, 48 h, read-out: GI
A498 = test: Growth inhibition of human A498 cells at 10 uM incubated for 48 hrs by sulforhodamine B assay relative to control; assay type: functional; details: A498, 48 h, read-out: GI
HCT-15 = test: Growth inhibition of human HCT15 cells at 10 uM incubated for 48 hrs by sulforhodamine B assay relative to control; assay type: functional; details: HCT-15, 48 h, read-out: GI
Hs-578T = test: Growth inhibition of human Hs 578T cells at 10 uM incubated for 48 hrs by sulforhodamine B assay relative to control; assay type: functional; details: read-out: GI
HT-29 [1] = test: Antiproliferative activity against human HT-29 cells after 48 hrs by propidium iodide staining-based fluorometric analysis; assay type: functional, cell-based; details: HT-29, 48 h
EKVX = test: Growth inhibition of human EKVX cells at 10 uM incubated for 48 hrs by sulforhodamine B assay relative to control; assay type: functional; details: read-out: GI
UO-31 = test: Growth inhibition of human UO31 cells at 10 uM incubated for 48 hrs by sulforhodamine B assay relative to control; assay type: functional; details: UO-31, 48 h, read-out: GI
LOX IMVI = test: Growth inhibition of human LOXIMVI cells at 10 uM incubated for 48 hrs by sulforhodamine B assay relative to control; assay type: functional; details: read-out: GI
SK-MEL-5 = test: Growth inhibition of human SK-MEL-5 cells at 10 uM incubated for 48 hrs by sulforhodamine B assay relative to control; assay type: functional; details: SK-MEL-5, 48 h, read-out: GI
NCI-H460 = test: Antiproliferative activity against human H460 cells after 48 hrs by propidium iodide staining-based fluorometric analysis; assay type: functional, cell-based; details: NCI-H460, 48 h
RPMI-8226 = test: Growth inhibition of human RPMI8226 cells at 10 uM incubated for 48 hrs by sulforhodamine B assay relative to control; assay type: functional; details: RPMI-8226, 48 h, read-out: GI
COLO 205 = test: Growth inhibition of human COLO205 cells at 10 uM incubated for 48 hrs by sulforhodamine B assay relative to control; assay type: functional; details: COLO 205, 48 h, read-out: GI
HT-29 [2] = test: Growth inhibition of human HT-29 cells at 10 uM incubated for 48 hrs by sulforhodamine B assay relative to control; assay type: functional; details: HT-29, 48 h, read-out: GI
OVCAR-3 = test: Growth inhibition of human OVCAR3 cells at 10 uM incubated for 48 hrs by sulforhodamine B assay relative to control; assay type: functional; details: OVCAR-3, 48 h, read-out: GI
MIA PaCa-2 = test: Antiproliferative activity against human MIAPaCa2 cells after 48 hrs by propidium iodide staining-based fluorometric analysis; assay type: functional, cell-based; details: MIA PaCa-2, 48 h
A549 = test: Growth inhibition of human A549/ATCC cells at 10 uM incubated for 48 hrs by sulforhodamine B assay relative to control; assay type: functional; details: A549, 48 h, read-out: GI
KM12 = test: Growth inhibition of human KM12 cells at 10 uM incubated for 48 hrs by sulforhodamine B assay relative to control; assay type: functional; details: KM12, 48 h, read-out: GI
SF-268 = test: Growth inhibition of human SF268 cells at 10 uM incubated for 48 hrs by sulforhodamine B assay relative to control; assay type: functional; details: SF-268, 48 h, read-out: GI
T47D = test: Growth inhibition of human T47D cells at 10 uM incubated for 48 hrs by sulforhodamine B assay relative to control; assay type: functional; details: read-out: GI
MDA-MB-435 = test: Growth inhibition of human MDA-MB-435 cells at 10 uM incubated for 48 hrs by sulforhodamine B assay relative to control; assay type: functional; details: MDA-MB-435, 48 h, read-out: GI
TK-10 = test: Growth inhibition of human TK10 cells at 10 uM incubated for 48 hrs by sulforhodamine B assay relative to control; assay type: functional; details: TK-10, 48 h, read-out: GI
SK-OV-3 = test: Growth inhibition of human SKOV3 cells at 10 uM incubated for 48 hrs by sulforhodamine B assay relative to control; assay type: functional; details: SK-OV-3, 48 h, read-out: GI
SK-MEL-2 = test: Growth inhibition of human SK-MEL-2 cells at 10 uM incubated for 48 hrs by sulforhodamine B assay relative to control; assay type: functional; details: SK-MEL-2, 48 h, read-out: GI
SR = test: Growth inhibition of human SR cells at 10 uM incubated for 48 hrs by sulforhodamine B assay relative to control; assay type: functional; details: read-out: GI
BT-549 = test: Growth inhibition of human BT549 cells at 10 uM incubated for 48 hrs by sulforhodamine B assay relative to control; assay type: functional; details: BT-549, 48 h, read-out: GI
SK-MEL-28 = test: Growth inhibition of human SK-MEL-28 cells at 10 uM incubated for 48 hrs by sulforhodamine B assay relative to control; assay type: functional; details: SK-MEL-28, 48 h, read-out: GI

Compound	inhibition of growth at 10 µM (UACC-257) [%]	inhibition of growth at 10 µM (SNB-75) [%]	inhibition of growth at 10 µM (A498) [%]	inhibition of growth at 10 µM (HCT-15) [%]	inhibition of growth at 10 µM (Hs-578T) [%]	IC50 (HT-29 [1]) [µM]	inhibition of growth at 10 µM (EKVX) [%]	inhibition of growth at 10 µM (UO-31) [%]	inhibition of growth at 10 µM (LOX IMVI) [%]	inhibition of growth at 10 µM (SK-MEL-5) [%]	IC50 (NCI-H460) [µM]	inhibition of growth at 10 µM (RPMI-8226) [%]	inhibition of growth at 10 µM (COLO 205) [%]	inhibition of growth at 10 µM (HT-29 [2]) [%]	inhibition of growth at 10 µM (OVCAR-3) [%]	IC50 (MIA PaCa-2) [µM]	inhibition of growth at 10 µM (A549) [%]	inhibition of growth at 10 µM (KM12) [%]	inhibition of growth at 10 µM (SF-268) [%]	inhibition of growth at 10 µM (T47D) [%]	further results
Clc1ccc(-c2cn3nc(-c4ccccc4)nc3s2)cc1	15	36	52	9	40	5.9	28	40	19	21	5.1	10	18	26	24	6.5	36	30	20	74	inhibition of growth at 10 µM (MDA-MB-435): 11%; inhibition of growth at 10 µM (TK-10): 18%; inhibition of growth at 10 µM (SK-OV-3): 64%
COc1cc(-c2nc3sc(-c4ccccc4)cn3n2)cc(OC)c1OC	10	24	29	42	26	4.9	63	43	33	41	4.8	42	15	18	–	4.7	23	14	9	55	inhibition of growth at 10 µM (SK-MEL-2): 20%; inhibition of growth at 10 µM (SR): 65%; inhibition of growth at 10 µM (BT-549): 18%; inhibition of growth at 10 µM (MDA-MB-435): 16%; inhibition of growth at 10 µM (TK-10): 6%; inhibition of growth at 10 µM (SK-MEL-28): 4%
c1ccc(-c2nc3sc(-c4ccccc4)cn3n2)cc1	13	15	13	8	9	8.4	21	53	16	20	8.3	14	5	9	16	9.2	10	18	7	63	inhibition of growth at 10 µM (SK-MEL-2): 5%; inhibition of growth at 10 µM (SR): 9%; inhibition of growth at 10 µM (SK-OV-3): 5%
COc1ccc(-c2nc3sc(-c4ccccc4)cn3n2)cc1	28	34	56	69	40	6.6	37	38	45	65	6.9	21	63	70	41	4.9	49	70	28	65	inhibition of growth at 10 µM (SK-MEL-2): 40%; inhibition of growth at 10 µM (SR): 58%; inhibition of growth at 10 µM (BT-549): 26%; inhibition of growth at 10 µM (MDA-MB-435): -8.6%; inhibition of growth at 10 µM (SK-MEL-28): 32%; inhibition of growth at 10 µM (SK-OV-3): 32%
